Measured values: the NIST ThermoML archive (doi:10.1021/je0503251)

Conditions: Liquid, Closed cell (Static) method

FC(F)CC(F)(F)F [1,1,1,3,3-pentafluoropropane]
Conditions | vapor or sublimation pressure [kPa]
253.12 K | 19.34
258.16 K | 25.37
263.13 K | 32.79
268.12 K | 41.88
273.12 K | 52.91
278.12 K | 66.17
283.15 K | 82.07
285.14 K | 89.11
288.12 K | 100.56
293.09 K | 122.2
295.08 K | 131.93
298.06 K | 147.46
303.06 K | 177.01
305.05 K | 190.2
308.05 K | 210.95
310.09 K | 225.91
313.1 K | 249.94
315.08 K | 266.8
318.12 K | 294.26
320.17 K | 312.44
323.16 K | 343.03
325.16 K | 364.63
328.16 K | 398.98
330.16 K | 423.22
333.16 K | 461.65
338.16 K | 531.78
343.16 K | 609.29
345.16 K | 642.58
348.16 K | 695.02
353.16 K | 789.45
358.16 K | 893.28
363.16 K | 1007
368.13 K | 1130.3
373.13 K | 1265.7
378.16 K | 1413.6
383.15 K | 1573.3
388.14 K | 1745.4
393.14 K | 1932.2
398.12 K | 2133.2
403.07 K | 2348.2

COCOC [dimethoxymethane]
Conditions | vapor or sublimation pressure [kPa]
283.13 K | 27.73
285.13 K | 30.39
288.11 K | 34.73
293.07 K | 43.08
295.07 K | 46.83
298.07 K | 52.94
300.07 K | 57.14
303.05 K | 64.26
305.05 K | 69.42
308.05 K | 77.74
310.07 K | 83.8
313.16 K | 93.85
318.13 K | 111.95
323.17 K | 132.98
325.18 K | 142.06
328.17 K | 156.44
330.17 K | 166.67
333.17 K | 182.96
335.17 K | 194.47
338.16 K | 212.79
340.16 K | 225.73
343.16 K | 246.24
345.16 K | 260.68
348.16 K | 283.65
353.16 K | 325.16
358.16 K | 371.53
363.16 K | 421.82
368.16 K | 477.61
373.15 K | 538.51
378.16 K | 605.33
383.13 K | 677.68
388.15 K | 757.05
393.16 K | 842.82
398.15 K | 935.48
